Data as given in patent US20100137346A1, “DESFE[…] ACTINIDE DEC[…]” (priority 2006, published 2010).
Like-named read-outs stand apart in the source and are kept apart here.

What was measured:
[1] = cited from earlier work
[2] = bile duct-cannulated rodent model; cited from earlier work
[3] = in vivo; cited from earlier work
[4] = Chelator-induced uranium excretion (urine + bile, 24 h) in bile duct-cannulated rat model; format: in vivo
In short: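 Bile duct-cannulated rats received uranyl acetate dihydrate subcutaneously at 5 mg/kg, equal to 2.8 mg/kg uranium, and were then given a chelator. Urine and bile were collected for 24 hours and uranium was quantified by ICPMS. Results give total uranium excreted (urine + bile), the urine/bile split, the percentage of the administered dose cleared, and excretion relative to 14 pooled uranyl acetate-only controls. Each group had at least three animals.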

[5] = Renal uranium content in uranyl acetate-treated bile duct-cannulated rats (FIG. 3); format: in vivo, rat
Procedure: Desferrithiocin Analogue Induced Excretion of Uranium. In order to compare results with previous chelator-induced iron excretion data, the uranium clearance studies were carried out in a bile duct-cannulated rat model. The animals were given uranyl acetate dihydrate SC at a dose of 5 mg/kg (the actual dose of uranium is 2.8 mg/kg). Bile and urine samples were collected for 24 hours after dosing. Kidneys were removed from selected animals and tissue uranium concentration measured. At least three animals were utilized in each experimental group. Data from two separate control studies (uranyl acetate/ no chelator) have now been combined for a total of 14 control animals. All uranium concentrations were measured using ICPMS. The data are reported as the total quantity of uranium excreted [urine +bile]; the mode of excretion [urine/bile] is also given. In addition the percentage of the administered dose of uranium cleared and chelator-induced uranium excretion vs the controls is also given. Four positive controls were evaluated: DTPA (13, Table 1) given as its trisodium calcium salt, DFO (14), N,N′-bis(2hydroxybenzyl)ethylenediamine-N,N′-diacetic acid, monosodium salt (NaHBED, 15) and the hydroxypyridone CP94 (16) shown to bind uranium [Pashalidis, et al., Effective complex formation in the interaction of 1,2-dimethyl-3-hydroxypyrid-4-one (Deferiprone or L1) with uranium(VI), Journal of Radioanalytical and Nuclear Chemistry 1999; 242:181-184.] The total metal cleared after 24 h in control rats was 10% of the administered dose. When DTPA, 13, was given IP or PO at 300 μmol/kg immediately after uranium, the excretion was 17% and 8% of the administered dose respectively (p>0.05). However, when the drug was given IP at a dose of 600 μmol/kg immediately post-metal, the uranium excretion was significant, 20% (p<0.005). This is consistent with previously published data using a similar animal model.[Domingo, et al., Comparative effects of the chelators sodium 4,5-dihydroxybenzene-1,3-disulfonate (Tiron) and diethylenetriaminepentaacetic acid (DTPA) on acute uranium nephrotoxicity in rats, Toxicology 1997; 118:49-59] DFO (14) and CP94 (16) given IP immediately post uranyl acetate were ineffective.
The most promising analogue in the (S)-2-(2,4-dihydroxyphenyl)-4,5-dihydro-4-thiazolinecarboxylic series is the methoxy analogue (S)-4′-(CH3O)-DADMDFT (11). Given IP at 300 μmol/kg 0.5 h before uranyl acetate or immediately thereafter, nearly 30% of the metal was cleared (Table 1). This was also true if the drug was given IP 0.5 or 2 h post metal. The drug retains some efficacy given 4 h post uranium; 16% of the metal is excreted (p<0.006). When the chelator was given SC immediately post uranium, 40% of the administered metal was cleared. The increased excretion is probably associated with a slower absorption of the ligand. The data from rodents given the drug orally is even more encouraging (Table 1). […] The most profound data are associated with uranium decorporation from the kidneys (FIG. 3). When DTPA is given IP or PO at a dose of 300 μmol/kg immediately post metal, there is no reduction in renal uranium relative to controls. However, (S)-4′-(CH3O)-DADMDFT (11) given orally at a dose of 300 μmol/kg immediately post metal reduces renal uranium by 37% (p<0.005).
There is a small (16%) reduction when the drug is given PO at a dose of 300 μmol/kg 2 h post uranium. However, when 11 is given PO at a dose of 600 μmol/kg 0.5 h post metal, the renal uranium content is reduced by 76% (p<0.001). When given PO at the same dose 1 h post uranium exposure, the reduction is still significant, 42% (p<0.006). In all sets of ligands, the most lipophilic chelator is always the most toxic. […] On the basis of this finding, a less lipophilic, more water-soluble ligand than 12 was assembled, (S)-4′-(HO)-DADFT-PE (18, Table 1), a polyether analogue.

[6] = GLP toxicity and pharmacokinetics profile (NIH Roadmap Program); format: in vivo
Text: 7. This same ligand (11) has now been run through the NIH Roadmap Program and a complete GLP toxicity and pharmacokinetics profile is available.

[7] = cited from earlier work; remark: listed apart in the source
[8] = rodents; cited from earlier work
[9] = Iron-clearing efficiency (ICE) in iron-overloaded Cebus apella primate; format: in vivo; conditions: orally to C. apella primates, 150 μmol/kg
Procedure: In the text below, “iron-clearing efficiency” (ICE) [Bergeron, et al., Effects of C-4 Stereochemistry and C-4′ Hydroxylation on the Iron Clearing Efficiency and Toxicity of Desferrithiocin Analogues, J Med Chem 1999; 42:2432-2440] is used as a measure of the amount of iron excretion induced by a chelator. The ICE, expressed as a percent, is calculated as (ligand-induced iron excretion/theoretical iron excretion)×100. To illustrate, the theoretical iron excretion after administration of one millimole of desferrioxamine (DFO, 14, Table 1), a hexadentate chelator which forms a 1:1 complex with Fe(III), is one milli-g-atom of iron. Two millimoles of desferrithiocin (DFT, 1, FIG. 1), a tridentate chelator which forms a 2:1 complex with Fe(III), are required for the theoretical excretion of one milli-g-atom of iron. In clinical practice, the actual ICE of DFO (14), used to treat people with iron overload, is only 5 to 7% [Pippard, et al., Iron Chelation Using Subcutaneous Infusions of Diethylene Triamine Penta-acetic Acid (DTPA), Scand J Haematol 1986; 36:466-472; Pippard, Desferrioxamine-Induced Iron Excretion in Humans, Bailliere's Clin Haematol 1989; 2:323-343]. […]

C[C@]1(C(=O)O)CSC(c2ncccc2O)=N1 [Compound 1, (S)-4,5-dihydro-2-(3-hydroxy-2-pyridinyl)-4methyl-4-thiazolecarboxylic acid, reference compound]
ICE ([1]; iron-overloaded C. apella primate): 16% | ICE [2]: 5.5% | toxicity, in words [3]: severely nephrotoxic

COc1ccc(C2=N[C@@H](C(=O)O)CS2)c(O)c1 [Compound 11, (S)-2-(2-hydroxy-4-methoxyphenyl)-4,5dihydro-4-thiazolecarboxylic acid]
% of Administered Dose Cleared ([4]; 300 μmol/kg IP 0.5 h Post): ~30% | % of Administered Dose Cleared ([4]; 300 μmol/kg IP 0.5 h Post, listed as (S)-4′-(CH3O)-DADMDFT): ~30% | % of Administered Dose Cleared ([4]; 300 μmol/kg IP 0.5 h Pre): ~30% | % of Administered Dose Cleared ([4]; 300 μmol/kg IP 0.5 h Pre, listed as (S)-4′-(CH3O)-DADMDFT): ~30% | % of Administered Dose Cleared ([4]; 300 μmol/kg IP 2 h Post): ~30% | % of Administered Dose Cleared ([4]; 300 μmol/kg IP 4 h Post): 16% | % of Administered Dose Cleared ([4]; 300 μmol/kg IP Immediate): ~30% | % of Administered Dose Cleared ([4]; 300 μmol/kg PO 2 h Post): 18% | % of Administered Dose Cleared ([4]; 300 μmol/kg PO Immediate): 23% | % of Administered Dose Cleared ([4]; 300 μmol/kg SC Immediate): 40% | % of Administered Dose Cleared ([4]; 600 μmol/kg PO 0.5 h Post): 25% | % of Administered Dose Cleared ([4]; 600 μmol/kg PO 1 h Post): 26% | reduction in renal uranium ([5]; PO 300 μmol/kg 2 h post uranium): 16% | reduction in renal uranium relative to controls ([5]; PO 300 μmol/kg immediately post metal): 37% | reduction in renal uranium content ([5]; PO 600 μmol/kg 0.5 h post metal): 76% | reduction in renal uranium content ([5]; PO 600 μmol/kg 1 h post uranium exposure): 42% | no-observed-adverse-effect-level [6]: well within the range of expected human dosing requirements | metabolite formed by metabolic O-demethylation ([7]; in vivo): (S)-4′-(HO)-DADMDFT (9)

COCCOCCOCCOc1ccc(C2=N[C@@](C)(C(=O)O)CS2)c(O)c1 [Compound 18, (S)-4,5-dihydro-2-[2-hydroxy-4-(3,6,9-trioxadecyloxy)phenyl]-4methyl-4-thiazolecarboxylic acid]
% of Administered Dose Cleared ([4]; 300 μmol/kg IP Immediate): 22% | iron-clearing efficiency, in words ([1]; in both rodents and primates): highly efficient iron chelator | kidney concentration versus 10 ([7]; rodents): significantly lower concentrations in the kidney | liver concentration versus 10 ([7]; rodents): higher concentrations in the liver | tolerability versus 10 [8]: more tolerable

COc1ccc(C2=N[C@@H](C(=O)O)CS2)c(O)c1OC [drawing 26]
Iron Clearing Efficiency (%) [9]: 12.4 ± 6.2% | relative percentages of the iron excreted in the stool and urine ([9]; [stool/urine]): 94/6
